From ChEMBL document CHEMBL1151328, “Novel cytotoxic acylated oligorhamnosides from Mezzettia leptopoda” (1998)
Values after ≈ are worked out from the molar mass of the structure shown. Active and inactive are the calls of the source. The calls are words filed in the database; no cut-off is given here.

Tests used:
[1] = Cytotoxicity against human BC1 cells; format: functional; conditions: read-out: ED50 (the source's name)
Lu1 = test: Cytotoxicity against human Lu1 cells; format: functional; conditions: read-out: ED50 (the source's name)
ASK = test: Antimitotic activity in rat ASK cells at 100 ug/mL; format: functional, cell-based
KB [2] = test: Cytotoxicity against human KB cells; format: functional; conditions: read-out: ED50 (the source's name)
KB [3] = test: Cytotoxicity against human drug-resistant KB cells in presence of 1 ug/mL vinblastine; format: functional; conditions: read-out: ED50 (the source's name)
KB [4] = test: Cytotoxicity against human drug-resistant KB cells in absence of vinblastine; format: functional; conditions: read-out: ED50 (the source's name)
LNCaP = test: Cytotoxicity against human LNCAP cells; format: functional; conditions: read-out: ED50 (the source's name)
Col2 = test: Cytotoxicity against human Col2 cells; format: functional; conditions: read-out: ED50 (the source's name)

CCCCCCCCO[C@@H]1O[C@@H](C)[C@H](OC(=O)CCCCC)[C@@H](O[C@@H]2O[C@@H](C)[C@H](O)[C@@H](OC(C)=O)[C@H]2OC(C)=O)[C@H]1O [MEZZETTIASIDE 9]
EC50 [1]: > 20 µg/mL | EC50 (Lu1): 5.4 µg/mL (≈ 8.93 µM) | Activity (ASK): inactive | EC50 (KB [2]): 11.3 µg/mL (≈ 18.7 µM) | EC50 (KB [3]): > 20 µg/mL | EC50 (KB [4]): > 20 µg/mL | EC50 (LNCaP): > 20 µg/mL | EC50 (Col2): > 20 µg/mL

CCCCCCCCO[C@@H]1O[C@@H](C)[C@H](OC(=O)CCCCC)[C@@H](O[C@@H]2O[C@@H](C)[C@H](OC(C)=O)[C@@H](O[C@@H]3O[C@@H](C)[C@H](O)[C@@H](O)[C@H]3OC(C)=O)[C@H]2OC(C)=O)[C@H]1O [MEZZETTIASIDE 8]
EC50 [1]: > 20 µg/mL | EC50 (Lu1): 19.7 µg/mL (≈ 24.8 µM) | Activity (ASK): inactive | EC50 (KB [2]): > 20 µg/mL | EC50 (KB [3]): > 20 µg/mL | EC50 (KB [4]): > 20 µg/mL | EC50 (LNCaP): > 20 µg/mL | EC50 (Col2): 8.2 µg/mL (≈ 10.3 µM)

CCCCCCCCO[C@@H]1O[C@@H](C)[C@H](OC(=O)CCCCC)[C@@H](O[C@@H]2O[C@@H](C)[C@H](OC(C)=O)[C@@H](O[C@@H]3O[C@@H](C)[C@H](OC(C)=O)[C@@H](O)[C@H]3O)[C@H]2OC(C)=O)[C@H]1O [MEZZETTIASIDE 4]
EC50 [1]: > 20 µg/mL | EC50 (Lu1): 19.4 µg/mL (≈ 24.5 µM) | Activity (ASK): inactive | EC50 (KB [2]): 15.4 µg/mL (≈ 19.4 µM) | EC50 (KB [3]): > 20 µg/mL | EC50 (KB [4]): > 20 µg/mL | EC50 (LNCaP): > 20 µg/mL | EC50 (Col2): 6.2 µg/mL (≈ 7.82 µM)

CCCCCCCCO[C@@H]1O[C@@H](C)[C@H](OC(=O)CCCCC)[C@@H](O[C@@H]2O[C@@H](C)[C@H](OC(C)=O)[C@@H](OC(C)=O)[C@H]2OC(C)=O)[C@H]1O [MEZZETTIASIDE 11]
EC50 [1]: > 20 µg/mL | EC50 (Lu1): 6.1 µg/mL (≈ 9.43 µM) | Activity (ASK): inactive | EC50 (KB [2]): 12.7 µg/mL (≈ 19.6 µM) | EC50 (KB [3]): 5.6 µg/mL | EC50 (KB [4]): > 20 µg/mL | EC50 (LNCaP): > 20 µg/mL | EC50 (Col2): 9 µg/mL (≈ 13.9 µM)

CCCCCCCCO[C@@H]1O[C@@H](C)[C@H](OC(=O)CCCCC)[C@@H](O[C@@H]2O[C@@H](C)[C@H](OC(C)=O)[C@@H](O[C@@H]3O[C@@H](C)[C@H](OC(C)=O)[C@@H](OC(C)=O)[C@H]3O)[C@H]2OC(C)=O)[C@H]1O [MEZZETTIASIDE 3]
EC50 [1]: > 20 µg/mL | EC50 (Lu1): 11.8 µg/mL (≈ 14.1 µM) | Activity (ASK): inactive | EC50 (KB [2]): 14.3 µg/mL (≈ 17.1 µM) | EC50 (KB [3]): > 20 µg/mL | EC50 (KB [4]): > 20 µg/mL | EC50 (LNCaP): > 20 µg/mL | EC50 (Col2): 4.9 µg/mL (≈ 5.87 µM)

CCCCCCCCO[C@@H]1O[C@@H](C)[C@H](OC(=O)CCCCC)[C@@H](O[C@@H]2O[C@@H](C)[C@H](OC(C)=O)[C@@H](O[C@@H]3O[C@@H](C)[C@H](OC(C)=O)[C@@H](O)[C@H]3OC(C)=O)[C@H]2OC(C)=O)[C@H]1O [MEZZETTIASIDE 2]
EC50 [1]: > 20 µg/mL | EC50 (Lu1): 8.6 µg/mL (≈ 10.3 µM) | Activity (ASK): inactive | EC50 (KB [2]): 6.2 µg/mL (≈ 7.43 µM) | EC50 (KB [3]): > 20 µg/mL | EC50 (KB [4]): > 20 µg/mL | EC50 (LNCaP): > 20 µg/mL | EC50 (Col2): 4.3 µg/mL (≈ 5.15 µM)

CCCCCCCCO[C@@H]1O[C@@H](C)[C@H](OC(=O)CCCCC)[C@@H](O[C@@H]2O[C@@H](C)[C@H](OC(C)=O)[C@@H](O)[C@H]2OC(C)=O)[C@H]1O [MEZZETTIASIDEIDE 10]
EC50 [1]: > 20 µg/mL | EC50 (Lu1): > 20 µg/mL | Activity (ASK): inactive | EC50 (KB [2]): > 20 µg/mL | EC50 (KB [3]): > 20 µg/mL | EC50 (KB [4]): > 20 µg/mL | EC50 (LNCaP): > 20 µg/mL | EC50 (Col2): > 20 µg/mL
